Experimental data published in PMC11458958 (iScience, 2024).
Residues, ends and D or L forms follow the SMILES beside them. *: point of attachment. Cbz = O=C(OCc1ccccc1)*

What was measured:
cathepsins B and L = conditions: cited from earlier work
cathepsins K, B, L and S = conditions: 25 mg/kg; cited from earlier work
[1] = test system: mice subjected to coronary occlusion and reperfusion; experiment: In vivo acute reperfusion injury: 45 min coronary occlusion, 24 h reperfusion; set-up: species or system C57BL/6J mice; conditions: 25 mg/kg i.p. 10 min before reperfusion
cathepsin L = experiment: Cathepsin activity in heart homogenates; assay type: in vivo, C57BL/6J mice; conditions: 25 mg/kg
[2] = test system: mice with post-infarction remodeling; assay type: in vivo, C57BL/6J mice; conditions: 20 mg/kg daily oral
TAC mice = experiment: Transverse aortic constriction
[3] = 4 weeks after TAC, 10 mg/kg daily oral from 1 to 4 weeks after TAC (3w)

For `COCCOCCOC(=O)N[C@@H](CC(C)C)C(=O)N[C@@H](Cc1ccccc1)C(=O)C(=O)NC1CC1` [SNJ-1945], the cathepsin inhibition (cathepsins B and L) is listed as “inhibit at least cathepsins B and L”.
In the case of `CCCN1CCN(c2ccc(C(=O)NC3(C(=O)NCC#N)CCCCC3)cc2)CC1` [balicatib], the “cathepsin inhibition at this dose” value (cathepsins K, B, L and S) is given as “inhibits cathepsins K, B, L and S”, the “effect on infarct size” value [1] is given as “failed to attenuate infarct size” and the “cathepsin L activity in heart homogenates, reduced, compared to sham mice” value (cathepsin L) is given as 41.2 ± 7.3%.
For `CCOC(=O)[C@H](CCc1ccccc1)N[C@@H](C)C(=O)N1CCC[C@H]1C(=O)O` [Enalapril], the EF ([2]; 4 weeks of reperfusion) was 52.6 ± 2.2%, the FS ([2]; 4 weeks of reperfusion) was 22.7 ± 1.3% and the IVST ([2]; 4 weeks of reperfusion) was 0.79 ± 0.03 mm. For the same compound, the LVEDD ([2]; 4 weeks of reperfusion) was 4.85 ± 0.19 mm, the LVESD ([2]; 4 weeks of reperfusion) was 3.75 ± 0.12 mm and the LVPWT ([2]; 4 weeks of reperfusion) was 0.67 ± 0.02 mm. For the same compound, the “reduction of scar size vs. control group” value ([2]; 28 days) was 24%, the mortality rate ([2]; 28 days of reperfusion) was 20% and the EF (TAC mice; [3]) was 49.5 ± 1.6^$∗ %. The FS (TAC mice; [3]) was 20.8 ± 0.8^$∗ %, the HW (TAC mice; [3]) was 151.8 ± 4.9 mg and the HW/TL (TAC mice; [3]) was 8.68 ± 0.26^$∗ mg/mm. The IVST (TAC mice; [3]) was 0.97 ± 0.03^$∗ mm, the LVEDD (TAC mice; [3]) was 4.48 ± 0.05∗ mm and the LVESD (TAC mice; [3]) was 3.55 ± 0.05^$∗ mm. For the same compound, the LVPWT (TAC mice; [3]) was 0.78 ± 0.03^$ mm, the “EF reduction with respect to baseline” value (TAC mice; 4 weeks after TAC, 10 mg/kg daily oral starting 1 week after TAC) was 16% and the “capillary density (CD31 staining)” value (TAC mice; starting 1 week after TAC surgery, 10 mg/kg daily oral) was “preserved capillary density”.
For `CC(C)[C@H](NC(=O)OCc1ccccc1)C(=O)N[C@H](C=O)Cc1ccccc1` [MDL-28170] (Cbz-Val-Phe-aldehyde), the cathepsin inhibition (cathepsins B and L) is given as “inhibit at least cathepsins B and L”.
